Experiments:
human recombinant HDAC1 = target: T1, human recombinant HDAC1 (Homo sapiens, UniProt Q13547); test: HDAC1 enzyme activity inhibition (HDAC Fluorimetric Drug Discovery Kit); assay type: biochemical; details: human recombinant HDAC1, Fluor de Lys substrate, 30° C. 60 minutes; read-out: HDAC1
T1 construct: purchased Enzo Life Science, Inc. BML-SE456
How it was run: (§1)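 Compounds in 5-fold dilution series were incubated with […] enzyme and 10 μM substrate at 30° C for 60 minutes. Fluor de Lys Developer II was then added for 30 minutes to stop the reaction and develop the fluorescent signal.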

human recombinant HDAC6 = target: T2, human recombinant HDAC6 (Homo sapiens, UniProt Q9UBN7); test: HDAC6 enzyme activity inhibition (HDAC Fluorimetric Drug Discovery Kit); assay type: biochemical; details: for HDAC6 selectivity (fold): HDAC6 over HDAC1; for IC50: human recombinant HDAC6, same protocol as HDAC1
T2 construct: purchased Calbiochem Inc. 382180
T2 sequence (Q9UBN7 1-1215): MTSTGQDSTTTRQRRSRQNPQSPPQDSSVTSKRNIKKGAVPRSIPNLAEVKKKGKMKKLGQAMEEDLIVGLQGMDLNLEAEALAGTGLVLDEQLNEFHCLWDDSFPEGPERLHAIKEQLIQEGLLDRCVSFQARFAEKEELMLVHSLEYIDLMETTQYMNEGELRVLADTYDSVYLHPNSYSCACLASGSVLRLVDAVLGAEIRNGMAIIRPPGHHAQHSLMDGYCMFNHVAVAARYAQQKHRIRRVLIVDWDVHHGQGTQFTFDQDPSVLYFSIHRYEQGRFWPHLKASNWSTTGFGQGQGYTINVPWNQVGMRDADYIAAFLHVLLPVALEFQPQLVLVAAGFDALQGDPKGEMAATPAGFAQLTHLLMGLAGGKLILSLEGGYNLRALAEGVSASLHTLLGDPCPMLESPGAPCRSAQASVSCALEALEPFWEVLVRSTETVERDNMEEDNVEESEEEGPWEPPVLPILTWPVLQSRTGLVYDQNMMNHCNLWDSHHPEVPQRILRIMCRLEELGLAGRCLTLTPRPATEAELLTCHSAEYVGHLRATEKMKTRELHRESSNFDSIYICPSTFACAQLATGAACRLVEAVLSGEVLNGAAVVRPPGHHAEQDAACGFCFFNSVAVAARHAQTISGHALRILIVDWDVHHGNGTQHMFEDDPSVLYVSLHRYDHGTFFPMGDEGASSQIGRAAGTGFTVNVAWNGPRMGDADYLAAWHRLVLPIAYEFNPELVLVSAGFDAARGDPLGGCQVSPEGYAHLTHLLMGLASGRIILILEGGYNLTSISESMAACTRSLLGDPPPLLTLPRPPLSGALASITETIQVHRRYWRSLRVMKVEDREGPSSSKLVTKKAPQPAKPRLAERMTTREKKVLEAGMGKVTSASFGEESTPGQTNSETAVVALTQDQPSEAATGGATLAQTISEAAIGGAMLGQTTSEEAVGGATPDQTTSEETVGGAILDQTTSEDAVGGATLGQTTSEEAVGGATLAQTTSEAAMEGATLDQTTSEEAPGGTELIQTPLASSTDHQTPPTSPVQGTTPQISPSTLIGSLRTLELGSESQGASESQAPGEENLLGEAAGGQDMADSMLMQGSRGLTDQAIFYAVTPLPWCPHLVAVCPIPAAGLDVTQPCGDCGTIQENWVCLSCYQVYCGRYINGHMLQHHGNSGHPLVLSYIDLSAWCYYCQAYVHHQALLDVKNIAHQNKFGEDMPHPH
How it was run: as §1

T1 sequence (Q13547 whole entry): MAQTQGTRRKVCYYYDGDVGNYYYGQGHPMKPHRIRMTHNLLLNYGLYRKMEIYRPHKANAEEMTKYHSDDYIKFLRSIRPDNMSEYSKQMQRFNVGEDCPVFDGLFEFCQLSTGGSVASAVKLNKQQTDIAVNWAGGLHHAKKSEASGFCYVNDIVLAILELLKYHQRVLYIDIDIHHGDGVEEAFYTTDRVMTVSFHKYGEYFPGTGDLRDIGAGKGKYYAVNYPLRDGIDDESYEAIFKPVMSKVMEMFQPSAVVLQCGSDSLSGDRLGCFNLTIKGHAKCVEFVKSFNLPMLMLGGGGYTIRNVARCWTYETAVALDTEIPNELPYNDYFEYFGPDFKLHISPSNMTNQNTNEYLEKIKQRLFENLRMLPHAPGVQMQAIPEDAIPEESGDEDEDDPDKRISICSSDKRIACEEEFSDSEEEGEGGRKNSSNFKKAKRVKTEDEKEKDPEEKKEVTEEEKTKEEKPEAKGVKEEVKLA

| SMILES | IC50 (human recombinant HDAC1) [nM] | HDAC6 selectivity (fold) (human recombinant HDAC6) | IC50 (human recombinant HDAC6) [nM] |
| --- | --- | --- | --- |
| FC(F)c1nnc(-c2ccc(Cn3cc(-c4ccc(CN5CC6(COC6)C5)cc4)nn3)nc2)o1 [Compound 4561, 6-(4-(1-((5-(5-(difluoromethyl)-1,3,4-oxadiazol-2-yl)pyridin-2-yl)methyl)-1H-1,2,3-triazol-4-yl)benzyl)-2-oxa-6-azaspiro[3.3]heptane] | > 50000 | 3571 | 14 |
| CCN1CCN(Cc2ccc(-c3cn(Cc4ccc(-c5nnc(C(F)F)o5)cn4)nn3)cc2)CC1 [Compound 4563, 2-(difluoromethyl)-5-(6-((4-(4-((4-ethylpiperazin-1-yl)methyl)phenyl)-1H-1,2,3-triazol-1-yl)methyl)pyridin-3-yl)-1,3,4-oxadiazole] | > 50000 | 2222 | 22.5 |
| CN1CCN(c2cccc(-c3cn(Cc4ccc(-c5nnc(C(F)F)o5)cn4)nn3)c2F)CC1 [Compound 4569, 2-(difluoromethyl)-5-(6-((4-(2-fluoro-3-(4-methylpiperazin-1-yl)phenyl)-1H-1,2,3-triazol-1-yl)methyl)pyridin-3-yl)-1,3,4-oxadiazole] | > 50000 | 3649 | 13.7 |
| CCN1CCN(c2cccc(-c3cn(Cc4ccc(-c5nnc(C(F)F)o5)cn4)nn3)c2F)CC1 [Compound 4570, 2-(difluoromethyl)-5-(6-((4-(3-(4-ethylpiperazin-1-yl)-2-fluorophenyl)-1H-1,2,3-triazol-1-yl)methyl)pyridin-3-yl)-1,3,4-oxadiazole] | > 50000 | 2475 | 20.2 |
| CC(C)N1CCN(c2cccc(-c3cn(Cc4ccc(-c5nnc(C(F)F)o5)cn4)nn3)c2F)CC1 [Compound 4571, 2-(difluoromethyl)-5-(6-((4-(2-fluoro-3-(4-isopropylpiperazin-1-yl)phenyl)-1H-1,2,3-triazol-1-yl)methyl)pyridin-3-yl)-1,3,4-oxadiazole] | > 50000 | 2732 | 18.3 |
| Fc1c(-c2cn(Cc3ccc(-c4nnc(C(F)F)o4)cn3)nn2)cccc1N1CCN(C2CCC2)CC1 [Compound 4572, 2-(6-((4-(3-(4-cyclobutylpiperazin-1-yl)-2-fluorophenyl)-1H-1,2,3-triazol-1-yl)methyl)pyridin-3-yl)-5-(difluoromethyl)-1,3,4-oxadiazole] | > 50000 | 2564 | 19.5 |
| Fc1c(-c2cn(Cc3ccc(-c4nnc(C(F)F)o4)cn3)nn2)cccc1N1CCN(C2COC2)CC1 [Compound 4573, 2-(difluoromethyl)-5-(6-((4-(2-fluoro-3-(4-(oxetan-3-yl)piperazin-1-yl)phenyl)-1H-1,2,3-triazol-1-yl)methyl)pyridin-3-yl)-1,3,4-oxadiazole] | > 50000 | 2314 | 21.6 |
| CN1CCN(c2cccc(-c3cn(Cc4ccc(-c5nnc(C(F)F)o5)cc4F)nn3)c2F)CC1 [Compound 4576, 2-(difluoromethyl)-5-(3-fluoro-4-((4-(2-fluoro-3-(4-methylpiperazin-1-yl)phenyl)-1H-1,2,3-triazol-1-yl)methyl)phenyl)-1,3,4-oxadiazol] | > 50000 | 2857 | 17.5 |
| CCN1CCN(c2cccc(-c3cn(Cc4ccc(-c5nnc(C(F)F)o5)cc4F)nn3)c2F)CC1 [Compound 4577, 2-(difluoromethyl)-5-(4-((4-(3-(4-ethylpiperazin-1-yl)-2-fluorophenyl)-1H-1,2,3-triazol-1-yl)methyl)-3-fluorophenyl)-1,3,4-oxadiazole] | > 50000 | 2688 | 18.6 |
| CC(C)N1CCN(c2cccc(-c3cn(Cc4ccc(-c5nnc(C(F)F)o5)cc4F)nn3)c2F)CC1 [Compound 4578] | > 50000 | 1923 | 26 |
| Fc1cc(-c2nnc(C(F)F)o2)ccc1Cn1cc(-c2cccc(N3CCN(C4CCC4)CC3)c2F)nn1 [Compound 4579, 2-(4-((4-(3-(4-cyclobutylpiperazin-1-yl)-2-fluorophenyl)-1H-1,2,3-triazol-1-yl)methyl)-3-fluorophenyl)-5-(difluoromethyl)-1,3,4-oxadiazole] | > 50000 | 1256 | 39.8 |
| Fc1cc(-c2nnc(C(F)F)o2)ccc1Cn1cc(-c2cccc(N3CCN(C4COC4)CC3)c2F)nn1 [Compound 4580] | > 50000 | 1908 | 26.2 |
| CN1CCN(c2cc(-c3cn(Cc4ccc(-c5nnc(C(F)F)o5)cn4)nn3)ccn2)CC1 [Compound 4582, 2-(difluoromethyl)-5-(6-((4-(2-(4-methylpiperazin-1-yl)pyridin-4-yl)-1H-1,2,3-triazol-1-yl)methyl)pyridin-3-yl)-1,3,4-oxadiazole] | > 50000 | 2283 | 21.9 |
| Fc1cc(-c2nnc(C(F)F)o2)ccc1Cn1cc(-c2ccccc2CN2CCC2)nn1 [Compound 4583, 2-(4-((4-(2-(azetidin-1-ylmethyl)phenyl)-1H-1,2,3-triazol-1-yl)methyl)-3-fluorophenyl)-5-(difluoromethyl)-1,3,4-oxadiazole] | > 50000 | 138 | 360 |
| Fc1cc(-c2nnc(C(F)F)o2)ccc1Cn1cc(-c2ccccc2CN2CCCC2)nn1 [Compound 4585, 2-(difluoromethyl)-5-(3-fluoro-4-((4-(2-(pyrrolidin-1-ylmethyl)phenyl)-1H-1,2,3-triazol-1-yl)methyl)phenyl)-1,3,4-oxadiazole] | > 50000 | 237 | 210 |

Further lines, results first:

| IC50 (human recombinant HDAC1) [nM] | HDAC6 selectivity (fold) (human recombinant HDAC6) | IC50 (human recombinant HDAC6) [nM] | SMILES |
| --- | --- | --- | --- |
| > 50000 | 4672 | 10.7 | FC(F)c1nnc(-c2ccc(Cn3cc(-c4ccc(CN5CCCC5)cc4)nn3)nc2)o1 [Compound 4560, 2-(difluoromethyl)-5-(6-((4-(4-(pyrrolidin-1-ylmethyl)phenyl)-1H-1,2,3-triazol-1-yl)methyl)pyridin-3-yl)-1,3,4-oxadiazole] |
| > 50000 | 2083 | 24 | CN1CCN(Cc2ccc(-c3cn(Cc4ccc(-c5nnc(C(F)F)o5)cn4)nn3)cc2)CC1 [Compound 4562, 2-(difluoromethyl)-5-(6-((4-(4-((4-methylpiperazin-1-yl)methyl)phenyl)-1H-1,2,3-triazol-1-yl)methyl)pyridin-3-yl)-1,3,4-oxadiazole] |
| > 50000 | 2358 | 21.2 | CN(C)C1CCN(Cc2ccc(-c3cn(Cc4ccc(-c5nnc(C(F)F)o5)cn4)nn3)cc2)CC1 [Compound 4564, 1-(4-(1-((5-(5-(difluoromethyl)-1,3,4-oxadiazol-2-yl)pyridin-2-yl)methyl)-1H-1,2,3-triazol-4-yl)benzyl)-N,N-dimethylpiperidin-4-amine] |
| > 50000 | 6024 | 8.3 | FC(F)c1nnc(-c2ccc(Cn3cc(-c4ccc(CNC5CCC5)cc4)nn3)nc2)o1 [Compound 4565, N-(4-(1-((5-(5-(difluoromethyl)-1,3,4-oxadiazol-2-yl)pyridin-2-yl)methyl)-1H-1,2,3-triazol-4-yl)benzyl)cyclobutanamine] |
| > 50000 | 1256 | 39.8 | FC(F)c1nnc(-c2ccc(Cn3cc(-c4ccc(CNC5COC5)cc4)nn3)nc2)o1 [Compound 4566, N-(4-(1-((5-(5-(difluoromethyl)-1,3,4-oxadiazol-2-yl)pyridin-2-yl)methyl)-1H-1,2,3-triazol-4-yl)benzyl)oxetan-3-amine] |
| > 50000 | 1333 | 37.5 | CN1CC(NCc2ccc(-c3cn(Cc4ccc(-c5nnc(C(F)F)o5)cn4)nn3)cc2)C1 [Compound 4567, N-(4-(1-((5-(5-(difluoromethyl)-1,3,4-oxadiazol-2-yl)pyridin-2-yl)methyl)-1H-1,2,3-triazol-4-yl)benzyl)-1-methylazetidin-3-amine] |

— patent US20230257372A1 (CHONG KUN DANG PHARMACEUTICAL CORP., priority 2020, published 2023)
